# Data taken from article PMC6202471 (CPT: Pharmacometrics & Systems Pharmacology, 2018).
# Read-outs that look alike come from different tables or passages of the source.
# Legend:
# [1] = cited from earlier work; for AUC, NCA results: trapezoidal rule with extrapolation to infinity
# [2] = cited from earlier work; for f u,GW, unbound drug fraction in the gut wall: fixed to 1
# [3] = Semimechanistic population pharmacokinetic model; settings: for CLINT,H, intrinsic hepatic clearance, SIR median: SIR 20,000 samples, 2,000 resamples; for CLINT,H, intrinsic hepatic clearance, SIR median / CLINT,GW, intrinsic gut wall clearance, SIR median / Q PER1, central to first peripheral compartment clearance, SIR median / V C, volume of central compartment, SIR median / V PER1, volume of first peripheral compartment, SIR median / V C, volume of central compartment, NONMEM mean θ estimate / V PER1, volume of first peripheral compartment, NONMEM mean θ estimate: norketamine values apparent; for CLINT,GW, intrinsic gut wall clearance, NONMEM mean θ estimate / CLINT,H, intrinsic hepatic clearance, NONMEM mean θ estimate: norketamine values apparent (F met set to 1)
# [4] = cited from earlier work; for K a,TIC, absorption rate constant, fixed to a published value: FIXED in the model
# [5] = biological target: T1, CYP2B6 (Homo sapiens, UniProt P20813); settings: after administration of ticlopidine
# T1 sequence (P20813 1-491): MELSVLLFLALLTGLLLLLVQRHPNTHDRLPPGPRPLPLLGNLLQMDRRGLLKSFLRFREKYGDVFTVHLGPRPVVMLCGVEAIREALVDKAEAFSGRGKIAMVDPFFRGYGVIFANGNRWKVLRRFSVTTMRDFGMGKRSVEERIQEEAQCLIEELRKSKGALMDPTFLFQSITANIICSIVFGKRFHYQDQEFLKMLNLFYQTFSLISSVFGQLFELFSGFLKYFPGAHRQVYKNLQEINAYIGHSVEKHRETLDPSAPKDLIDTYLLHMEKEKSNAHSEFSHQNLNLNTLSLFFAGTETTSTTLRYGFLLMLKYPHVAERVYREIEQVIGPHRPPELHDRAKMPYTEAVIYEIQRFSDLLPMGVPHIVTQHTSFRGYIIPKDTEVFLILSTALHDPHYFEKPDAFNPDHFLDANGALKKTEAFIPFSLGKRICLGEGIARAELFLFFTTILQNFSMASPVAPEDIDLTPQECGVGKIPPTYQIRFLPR
# [6] = biological target: T1, CYP2B6; settings: in vitro study; cited from earlier work
# [7] = S-ketamine p.o. ticlopidine-phase
Structure (SMILES),"C max, NCA results ([1]; S-ketamine i.v. placebo-phase)","C max, NCA results ([1]; S-ketamine p.o. placebo-phase)","AUC, NCA results ([1]; S-ketamine p.o. placebo-phase)","C max, NCA results [1, 7]","AUC, NCA results [1, 7]","f u,GW, unbound drug fraction in the gut wall [2]","CLINT,H, intrinsic hepatic clearance, SIR median [3]","CLINT,GW, intrinsic gut wall clearance, SIR median ([3]; SIR)","Q PER1, central to first peripheral compartment clearance, SIR median ([3]; SIR)","V C, volume of central compartment, SIR median ([3]; SIR)","V PER1, volume of first peripheral compartment, SIR median ([3]; SIR)","Interindividual variability on CLINT,H, NONMEM estimate ([3]; exponential IIV model)","Interindividual variability on CLINT,H, SIR median ([3]; exponential IIV model, SIR)","V C, volume of central compartment, NONMEM mean θ estimate ([3]; final model)","V PER1, volume of first peripheral compartment, NONMEM mean θ estimate ([3]; final model)","CLINT,GW, intrinsic gut wall clearance, NONMEM mean θ estimate ([3]; final model)","CLINT,H, intrinsic hepatic clearance, NONMEM mean θ estimate ([3]; final model)",other results
CCC(C)n1ncn(-c2ccc(N3CCN(c4ccc(OCC5COC(Cn6cncn6)(c6ccc(Cl)cc6Cl)O5)cc4)CC3)cc2)c1=O (stereo not drawn) [Itraconazole],–,–,–,–,–,–,–,–,–,–,–,–,–,–,–,–,–,"Effect on plasma concentrations of orally administered S-ketamine ([1]; CYP3A inhibitor pretreatment, healthy volunteers): no significant effect"
"NC1(c2ccccc2Cl)CCCCC1=O (stereo not drawn) [Norketamine, norketamine]",14 ng/mL,61 ng/mL,292 ng·h/mL,46 ng/mL,310 ng·h/mL,1,73.4 L/h,46.5 L/h,20.1 L/h,88 L,88.8 L,0.10,0.10,88.4 L,88.9 L,44.4 L/h,73.5 L/h,"f u,NK, unbound drug fraction in the blood ([2]; norketamine): 0.50"
"Clc1ccccc1CN1CCc2sccc2C1 [Ticlopidine, ticlopidine]",–,–,–,–,–,1,–,–,–,50.8 L,208.7 L,–,–,50.3 L,191 L,–,–,"K a,TIC, absorption rate constant, fixed to a published value [4]: 3.3 (FIXED) /h; K a,TIC, absorption rate constant, fixed to a published value ([4]; listed as ticlopidine): 3.3 h⁻¹; Ticlopidine half-life after multiple dosing [4]: increased"
CN[C@]1(c2ccccc2Cl)CCCCC1=O [S‐ketamine],32 ng/mL,9.9 ng/mL,21 ng·h/mL,17 ng/mL,54 ng·h/mL,1,304 L/h,1.22 L/h,288 L/h,14.4 L,102 L,0.25,0.26,14.4 L,102 L,1.19 L/h,301 L/h,"Intrinsic hepatic clearance of S-ketamine [5]: 113 L/h; Total hepatic clearance of S-ketamine ([5]; well-stirred model): 60 L/h; f u,SK, unbound drug fraction in the blood ([2]; S-ketamine): 0.70; Share of S-ketamine metabolized to norketamine in vivo [4]: ~ 80%; F met, true value for S-ketamine to norketamine metabolism ([4]; humans, set to 1 in the model): b Should be considered as apparent rather than absolute values, as F met was set to 1 but true value of F met = 0.80 in humans for S‐ketamine to norketamine metabolism.; K a, absorption rate constant, SIR median ([3]; SIR): 1.78 h⁻¹; Q PER2, central to second peripheral compartment clearance, SIR median ([3]; SIR): 22.3 L/h; V PER2, volume of second peripheral compartment, SIR median ([3]; SIR): 180 L; Interindividual variability on CLINT,GW, NONMEM estimate ([3]; exponential IIV model): 2.1; Interindividual variability on K a, NONMEM estimate ([3]; exponential IIV model): 0.42; Interindividual variability on V PER1, NONMEM estimate ([3]; exponential IIV model): 0.045; Interindividual variability on CLINT,GW, SIR median ([3]; exponential IIV model, SIR): 2.0; Interindividual variability on K a, SIR median ([3]; exponential IIV model, SIR): 0.44; Interindividual variability on V PER1, SIR median ([3]; exponential IIV model, SIR): 0.046; K a, absorption rate constant, NONMEM mean θ estimate ([3]; final model): 1.76 h⁻¹; V PER2, volume of second peripheral compartment, NONMEM mean θ estimate ([3]; final model): 180 L; Total hepatic clearance of S-ketamine ([3]; placebo phase, well-stirred model): 71 L/h"
CNC1(c2ccccc2Cl)CCCCC1=O (stereo not drawn) [ketamine],–,–,–,–,–,–,–,–,–,–,–,–,–,–,–,–,–,Bioavailability after oral administration ([4]; extensive first-pass metabolism): ~ 17%; Fraction of ketamine metabolized by hepatic CYP2B6 [6]: around 60%
